In the NIST ThermoML archive (doi:10.1021/je500381c):

Assay: xn = mol fraction of the nth substance listed
Conditions: for mass density / viscosity: 100 kPa, Liquid; for mass density: Vibrating tube method; for surface tension liquid-gas: Drop volume

CC12CC3CC(C)(C1)CC(C)(C3)C2 [1,3,5-trimethyladamantane] + OCC1CCCCC1
Conditions | mass density [kg/m3] | surface tension liquid-gas [mN/m] | viscosity [mPa·s]
293.15 K, x2 = 0 | 887.48 | – | 2.601
293.15 K, x2 = 0.1 | 889.7 | – | 2.872
293.15 K, x2 = 0.2001 | 892.4 | – | 3.328
293.15 K, x2 = 0.2997 | 895.41 | – | 3.955
293.15 K, x2 = 0.4 | 898.82 | – | 4.859
293.15 K, x2 = 0.4994 | 902.62 | – | 6.211
293.15 K, x2 = 0.5991 | 906.88 | – | 8.288
293.15 K, x2 = 0.7 | 911.64 | – | 11.51
293.15 K, x2 = 0.801 | 917.1 | – | 16.66
293.15 K, x2 = 0.8927 | 922.52 | – | 24.62
298.15 K, x2 = 0 | 883.99 | 26.17 | 2.338
298.15 K, x2 = 0.1 | 886.13 | 26.18 | 2.55
298.15 K, x2 = 0.2001 | 888.82 | 26.4 | 2.939
298.15 K, x2 = 0.2997 | 891.83 | 26.77 | 3.455
298.15 K, x2 = 0.4 | 895.23 | 27.22 | 4.184
298.15 K, x2 = 0.4994 | 899.02 | 27.65 | 5.256
298.15 K, x2 = 0.5991 | 903.29 | 28.16 | 6.866
298.15 K, x2 = 0.7 | 908.13 | 28.88 | 9.343
298.15 K, x2 = 0.801 | 913.53 | 29.74 | 13.22
298.15 K, x2 = 0.8927 | 918.95 | 30.63 | 19.19
303.15 K, x2 = 0 | 880.47 | – | 2.118
303.15 K, x2 = 0.1 | 882.54 | – | 2.297
303.15 K, x2 = 0.2001 | 885.21 | – | 2.615
303.15 K, x2 = 0.2997 | 888.21 | – | 3.041
303.15 K, x2 = 0.4 | 891.61 | – | 3.639
303.15 K, x2 = 0.4994 | 895.4 | – | 4.492
303.15 K, x2 = 0.5991 | 899.66 | – | 5.76
303.15 K, x2 = 0.7 | 904.52 | – | 7.681
303.15 K, x2 = 0.801 | 909.91 | – | 10.65
303.15 K, x2 = 0.8927 | 915.34 | – | 15.28
308.15 K, x2 = 0 | 876.94 | – | 1.93
308.15 K, x2 = 0.1 | 878.93 | – | 2.072
308.15 K, x2 = 0.2001 | 881.59 | – | 2.336
308.15 K, x2 = 0.2997 | 884.59 | – | 2.694
308.15 K, x2 = 0.4 | 887.97 | – | 3.187
308.15 K, x2 = 0.4994 | 891.76 | – | 3.876
308.15 K, x2 = 0.5991 | 896.02 | – | 4.884
308.15 K, x2 = 0.7 | 900.87 | – | 6.386
308.15 K, x2 = 0.801 | 906.27 | – | 8.659
308.15 K, x2 = 0.8927 | 911.73 | – | 12.26
313.15 K, x2 = 0 | 873.4 | – | 1.765
313.15 K, x2 = 0.1 | 875.32 | – | 1.878
313.15 K, x2 = 0.2001 | 877.95 | – | 2.1
313.15 K, x2 = 0.2997 | 880.94 | – | 2.402
313.15 K, x2 = 0.4 | 884.32 | – | 2.811
313.15 K, x2 = 0.4994 | 888.09 | – | 3.371
313.15 K, x2 = 0.5991 | 892.35 | – | 4.181
313.15 K, x2 = 0.7 | 897.2 | – | 5.366
313.15 K, x2 = 0.801 | 902.61 | – | 7.126
313.15 K, x2 = 0.8927 | 908.08 | – | 9.952
318.15 K, x2 = 0 | 869.86 | – | 1.621
318.15 K, x2 = 0.1 | 871.69 | – | 1.71
318.15 K, x2 = 0.2001 | 874.3 | – | 1.898
318.15 K, x2 = 0.2997 | 877.27 | – | 2.151
318.15 K, x2 = 0.4 | 880.63 | – | 2.494
318.15 K, x2 = 0.4994 | 884.4 | – | 2.954
318.15 K, x2 = 0.5991 | 888.66 | – | 3.609
318.15 K, x2 = 0.7 | 893.49 | – | 4.552
318.15 K, x2 = 0.801 | 898.9 | – | 5.932
318.15 K, x2 = 0.8927 | 904.4 | – | 8.189
323.15 K, x2 = 0 | 866.31 | – | 1.494
323.15 K, x2 = 0.1 | 868.04 | – | 1.564
323.15 K, x2 = 0.2001 | 870.63 | – | 1.723
323.15 K, x2 = 0.2997 | 873.58 | – | 1.936
323.15 K, x2 = 0.4 | 876.93 | – | 2.224
323.15 K, x2 = 0.4994 | 880.69 | – | 2.604
323.15 K, x2 = 0.5991 | 884.94 | – | 3.14
323.15 K, x2 = 0.7 | 889.76 | – | 3.899
323.15 K, x2 = 0.801 | 895.17 | – | 4.99
323.15 K, x2 = 0.8927 | 900.68 | – | 6.785
328.15 K, x2 = 0 | 862.76 | – | 1.384
328.15 K, x2 = 0.1 | 864.39 | – | 1.435
328.15 K, x2 = 0.2001 | 866.94 | – | 1.569
328.15 K, x2 = 0.2997 | 869.86 | – | 1.752
328.15 K, x2 = 0.4 | 873.2 | – | 1.994
328.15 K, x2 = 0.4994 | 876.94 | – | 2.311
328.15 K, x2 = 0.5991 | 881.18 | – | 2.751
328.15 K, x2 = 0.7 | 885.99 | – | 3.367
328.15 K, x2 = 0.801 | 891.4 | – | 4.238
328.15 K, x2 = 0.8927 | 896.92 | – | 5.705
333.15 K, x2 = 0 | 859.2 | – | 1.284
333.15 K, x2 = 0.1 | 860.72 | – | 1.322
333.15 K, x2 = 0.2001 | 863.23 | – | 1.436
333.15 K, x2 = 0.2997 | 866.13 | – | 1.59
333.15 K, x2 = 0.4 | 869.45 | – | 1.797
333.15 K, x2 = 0.4994 | 873.17 | – | 2.061
333.15 K, x2 = 0.5991 | 877.4 | – | 2.426
333.15 K, x2 = 0.7 | 882.2 | – | 2.93
333.15 K, x2 = 0.801 | 887.6 | – | 3.632
333.15 K, x2 = 0.8927 | 893.12 | – | 4.772
